Source: US8889660B2, “Methods for treating obesity or an obesity related condition” (Case Western Reserve University, priority 2010, dated 2014)
Entries after “also recorded” stand apart in the source; their conditions may differ.

What was measured:
[1] = tested on: retinoic acid receptor (RAR); assay: Activation of retinoic acid response element (RARE) / RAR; format: cell-based; conditions: FIGS. 1A-B, 7 and 8
Source text: FIG. 7 is a histogram showing the activation of retinoic acid response element (RARE) by all-trans-retinol (ROL), (13R)-all-trans-13,14-dihydroretinol (DROL R) and (13S)-all-trans-13,14-dihydroretinol (DROL S);
FIG. 8 is a histogram showing the activation of retinoic acid response element (RARE) by all-trans-retinoic acid (RA), (13R)-all-trans-13,14-dihydroretinoic acid (DRA R) and (13S)-all-trans-13,14-dihydroretinoic acid (DRA S); and
The at least one receptor may also include a retinoic acid receptor (RAR), such as RAR-α, RAR-β and RAR-γ which, when activated, translocates to a cell nucleus, binds to hormone response element on DNA, and elicits expression or transexpresssion of gene products. Alternatively, at least one response element, such as the RAR response element (RARE), can be activated.

[2] = biological target: retinol binding protein 4 (RBP4) (Homo sapiens, UniProt P02753); assay: Binding to RBP4 by fluorescence quenching; conditions: FIG. 9
Source text: FIG. 9 is a series of graphs showing the binding of (R)-all-trans-13,14-dihydroretinol and (S)-all-trans-13,14-dihydroretinol to RBP4, as determined by fluorescence quenching.
In another aspect of the present invention, the marker corresponding to the level and/or activity of an all-trans-retinol:all-trans-13,14-dihydroretinol saturase polypeptide may comprise a metabolite, such as a retinoid, associated with all-trans-retinol:all-trans-13,14-dihydroretinol saturase activity. The marker can include, for example, a retinoid having a saturated C13-14 double bond. More particularly, the retinoid having a saturated C13-14 double bond can include all-trans-13,14-dihydroretinol and/or all-trans-13,14-dihydrotretinoic acid. […] Increased levels of RBP4 are associated with the metabolic syndrome, diabetic disease and correlate with increased insulin resistance, obesity and visceral adiposity. Various techniques known in the art may be used to detect dihydroretinoid metabolite levels in a tissue sample, including, but not limited to, chromatography-based methods, electrophoresis and sedimentation, mass spectroscopy, and/or antibody-based methods. […]

[3] = biological target: T1, G-protein-coupled receptor 40 (GPR40) (Homo sapiens, UniProt O14842); assay: Calcium responses of GPR40-expressing cells (receptor screening); format: cell-based; conditions: calcium responses of GPR40 and Ga16 cells, FIGS. 1A-B
T1 construct: expressed in transfected cells; host or cells: GPR40-expressing recombinant cells
T1 sequence (O14842 whole entry, species assumed): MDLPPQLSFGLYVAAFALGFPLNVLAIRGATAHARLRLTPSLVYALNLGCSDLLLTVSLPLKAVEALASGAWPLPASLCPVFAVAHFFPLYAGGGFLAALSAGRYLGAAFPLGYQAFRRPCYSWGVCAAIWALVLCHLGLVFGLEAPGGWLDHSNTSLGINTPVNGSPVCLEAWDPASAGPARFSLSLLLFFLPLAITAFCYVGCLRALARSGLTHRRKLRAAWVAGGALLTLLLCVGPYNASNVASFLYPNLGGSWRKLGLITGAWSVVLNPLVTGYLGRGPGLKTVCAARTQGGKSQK
Procedure: FIGS. 1A-B are a series of histographs showing the screening of potential receptors for all-trans-13,14-dihydroretinoic acid. FIG. 1A is a histogram showing calcium responses of G-protein-coupled receptor 40 and Ga16 cells to 100 μM fatty acids and retinoic acids. FIG. 2A is a histogram showing calcium responses to retinoic acid compounds at 10 μM;
The activation of GPR40 by all-trans-13,14-dihydroretinoic acid is studied in vitro by measuring the calcium flux and internalization of GPR40 in response to all-trans-13,14-dihydroretinoic in GPR40-expressing recombinant cells. In collaboration with Dr. de Lera University of Vigo, Spain, we have produced synthetic enantiomerically pure (R) or (S) all-trans-13,14-dihydroretinol and all-trans-13,14-dihydroretinoic acid and we have determined the stereospecificity of the RetSat catalyzed reaction. Activation of GPR40 by all-trans-13,14-dihydroretinoic acid leading to secretion of insulin is studied by measuring the level of secreted insulin from INS-1 insulinoma cells or from primary pancreatic β-cells primed with all-trans-13,14-dihydroretinoic acid.

[4] = tested on: wild type mice; assay: Injection in wild type mice, glycemia; format: in vivo

Row | Compound | activation of retinoic acid receptor (RAR/RARE) [1] | binding to RBP4 [2] | activation of GPR40 [3] | effect on blood glucose after injection [4]
1 | CC1=C(/C=C/C(C)=C/C=C/[C@H](C)CC(=O)O)C(C)(C)CCC1 (stereo in doubt) [(R)-all-trans-13,14-dihydroretinoic acid] | can activate RAR |  |  | 
2 | CC1=C(/C=C/C(C)=C/C=C/[C@@H](C)CC(=O)O)C(C)(C)CCC1 (stereo in doubt) [(S)-all-trans-13,14-dihydroretinoic acid] | can activate RAR |  |  | 
3 | CC1=C(/C=C/C(C)=C/C=C/C(C)CC(=O)O)C(C)(C)CCC1 (stereo not drawn) [all-trans-13,14-dihydroretinoic acid] | activator |  | activator; also recorded: can be activated by all-trans-13,14-dihydroretinoic acid | 
4 | CC1=C(/C=C/C(C)=C/C=C/C(C)CCO)C(C)(C)CCC1 (stereo not drawn) [all-trans-13,14-dihydroretinol] |  |  |  | prolonged hypoglycemia

More lines, main results first:

Row | activation of retinoic acid receptor (RAR/RARE) [1] | Compound | binding to RBP4 [2] | activation of GPR40 [3] | effect on blood glucose after injection [4]
5 | can also activate RAR | CC1=C(/C=C/C(C)=C/C=C/[C@H](C)CCO)C(C)(C)CCC1 [(R)-all-trans-13,14-dihydroretinol, (13R)-13,14-Dihydroretinol] | associated with the carrier protein retinol binding protein 4 (RBP4) |  | 
6 | can also activate RAR | CC1=C(/C=C/C(C)=C/C=C/[C@@H](C)CCO)C(C)(C)CCC1 [(S)-all-trans-13,14-dihydroretinol, (13S)-13,14-Dihydroretinol] | associated with the carrier protein retinol binding protein 4 (RBP4) |  | 
